Series [1] concerns HEK 293T cells. The series can be described thus: Whole-cell patch clamp voltage sensitivity. The format is cell-based, Human. The note with it: 500 nM dye, cells held at −60 mV, 10 mV steps. The protocol: Having established its environmental sensitivity and proclivity for membrane localization, it was hypothesized that Bu2N-TTz-Py could orient itself favorably within cell membranes and sense voltage differentials across the membrane. To test the membrane voltage sensitivity of Bu2N-TTz-Py, whole-cell patch clamp electrophysiology was performed on HEK 293T cells labeled with 500 nM Bu2N-TTz-Py. […] Tests concluded that Bu2N-TTz-Py has a voltage sensitivity of approximately 10% ΔF/F per 100 mV. For context, early generation VSDs, such as RH-421, ANNINE-6, and VF2.1.Cl, display maximum voltage sensitivities of 10%-25% ΔF/F per 100 mV.
Cell labeled spectral measurements. Excitation and emission spectra were collected by labeling the alveolar macrophage cell line J774.A1 (~0.5×10^5 cells) with 1 μM Bu2N-TTz-Py in phosphate buffered saline (PBS) buffer and 0.1% TritonX-100. Cells were incubated with dye for 10 min at RT, washed thrice with PBS, and dispersed in a cuvette for fluorescent spectral measurements (Fluoromax-4, Horiba Scientific, Edison, NJ, USA). Excitation spectra were collected at 520 nm emission. Emission spectra were collected by exciting at 440 nm. Electrophysiology. […]
For orientation: Patch clamp records ionic current or voltage across a cell membrane.

Series [2] has as its system HEK 293T cells. The series is described as follows: Annexin V-Cy5 cytotoxicity. The class given is cell-based, Human. The note with it: 500 nM dye for 15 min. As for the experimental part: FIG. 12C provides Annexin V-Cy5 staining of HEK 293T cells incubated with DMSO (Veh.), VF2.1.Cl, and Bu2N-TTz-Py. Apoptosis for control (incubated cells 65° C., 10 min). Percentages of cytotoxicity were calculated as number of 100×Cy5 positive cells per number of nuclei stained. Error bars represent S.E.M. of three independent experiments, n=250 cells. Scale bars=10 μm.
Lastly, the cellular toxicities of Bu2N-TTz-Py and VF2.1.Cl were characterized using Annexin V-Cy5 staining of phosphatidylserine. HEK 293T cells were labelled with Bu2N-TTz-Py or VF2.1.Cl for 15 min, incubated with Annexin V-Cy5 for 20 min in the dark, washed, and fixed with 4% paraformaldehyde before imaging. As a positive control, apoptosis was induced via high-temperature incubation (65° C., 10 min).
Cellular localization: Time-lapse imaging was performed to probe the membrane localization of Bu2N-TTz-Py at longer time scale. […] Intensity values at plasma membrane (IPM) were calculated by drawing regions of interest (ROI) around the whole cell and subtracting intracellular intensity (IIM, ROI drawn within the cell) for Bu2N-TTz-Py and CellMask images, respectively. […] Cytotoxicity percentage is calculated as number of Annexin V-Cy5 positive cells to total number of nuclear stained cells. Number of cells quantification were performed using Analyze particle function of ImageJ program.

`CCCCN(CCCC)c1ccc(-c2nc3sc(-c4ccncc4)nc3s2)cc1` [Bu2N-TTz-Py, 2-(N,N-dibutyl-4-aminophenyl)-5-(4-pyridyl) thiazolo[5,4-d]thiazole]: the voltage sensitivity entry with HEK 293T cells [1] is on record as “approximately 10 % ΔF/F per 100 mV”. Further, the “cytotoxicity (Annexin V-Cy5 staining)” value in the series on HEK 293T cells [2] is recorded as “insignificant cytotoxicity”.

These data come from patent publication US12707888B2, “Asymmetric donor-acceptor molecular dyes” (THE UNIVERSITY OF NORTH CAROLINA AT CHARLOTTE, priority 2019, dated 2026).
